Values quoted from earlier work, collected in publication PMC7288168, “Synthesis and Cytotoxic Activity of Chiral Sulfonamides Based on the 2-Azabicycloalkane Skeleton” (Molecules, 2020).

Tested on: D425 cells
Parameters: method as in von Bueren et al. [31]
Conditions: known chemotherapeutics in D425 cells; ref von Bueren et al. [31]; cited from earlier work

COc1cc([C@@H]2c3cc4c(cc3[C@@H](O[C@@H]3O[C@@H]5CO[C@@H](C)O[C@H]5[C@H](O)[C@H]3O)[C@H]3COC(=O)[C@H]23)OCO4)cc(OC)c1O [etoposide]
LD50 D425: 8 µM
